Assays:
Type in all cases: cell-based
P. fluorescens [1] = assay: Actual MIC (reference read after full growth period)
Procedure: In AST testing, a plurality of test wells are filled with inoculum and increasing concentrations of a number of different antimicrobial agents, for example antibiotics. The different antimicrobial agents may be diluted in a growth medium or liquid medium to concentrations that include those of clinical interest. After incubation, the turbidity will be increased or unchanged in test wells where growth has not been inhibited by the antimicrobics in those test wells. The MIC of each antimicrobial agent is measured by lack of growth with respect to each concentration of antimicrobial agent. It follows that the lowest concentration of antimicrobial agent displaying a lack of growth is the MIC. As set forth above, neural networks can be used to model growth patterns of a bacterial isolate over time at various drug concentrations. As long as the bacteria grows in the well with no drug, then a neural network can be created to use the count and area of the growth well and at the various drug concentrations to make an early prediction of the MIC. […]

P. fluorescens [2] = assay: MIC prediction by neural network from digital microscopy of AST test wells
Text: FIG. 8 provides an illustration of how data that can be used in an optimized AST method 101 can be captured from a test well. Test well 20 is embodied by a “384” style test well, having a clear viewing bottom. The volume of inoculum in test well 20 may be set to 20 microliters to reduce the amount of materials such as bulk diluents required by AST method 101 and/or minimize light artifacts and provide sampling of a consistent number of microbes from the 1:250 dilution of the 0.5 MacFarland inoculum. Decreasing the volume of inoculum in test well 20 generally increases the light artifacts. In some instances, capturing a single vertical plane 103 at 20× objective whereby AST camera 35 is set at 0.33 microns/pixel may be sufficient for sampling the inoculum and ensuring that each individual microbe is recognizable. However, these parameters are configurable and may change as desired by the user or the underlying needs of the system. Capturing three focal sites spaced about 5 microns apart within single vertical plane 103 may also provide a sufficient number of microbes in the sample to count for use in optimized AST method 101. These three focal sites are labeled site 105, site 107, and site 109 in FIG. 8. In an exemplary version of optimized AST method 101, each focal site is approximately 700×700 microns within single vertical plane 103, rather than capturing three sites in three different vertical planes. AST camera 35, optics system 9, and computer 49 are configured to capture an image of each focal site in consecutive time periods, manipulate each of these images, and thereafter use the data derived from these manipulated images to make a MIC determination. In some embodiments, to use a neural network such as illustrated in FIG. 24 to make a MIC prediction, a test well containing some concentration of an antimicrobial could be inoculated with a microorganism. Data could then be gathered by taking measurements in a manner similar to that described above in the context of the decision tree and neural network classifiers of FIGS. 20-23B and 25. These measurements, along with the identity and concentration of the antimicrobial in the test well could then be provided as inputs to the neural network's input nodes. The values provided on the network's output nodes could then be treated as indications of the likelihood that the concentrations corresponding to the output nodes were the MIC for the microorganism added to the test well. For example, when using a network which had been trained to provide a likelihood that a first concentration is the MIC on a first output node, a likelihood that a second concentration is the MIC on a second output node, and a likelihood that a third concentration is the MIC on a third output node, the concentration corresponding to the output node with the highest value (which might not be the same as the concentration of the antimicrobial in the test well from which the data was gathered) could be treated as the MIC. In some embodiments, rather than using values of the output nodes of a network such as shown in FIG. 24 as directly indicating the MIC, values from such output nodes may be used as inputs to another function that would provide a (potentially more reliable) MIC value. For example, in some embodiments, separate sets of measurements could be gathered from each of a plurality of test wells having different concentrations of the same antimicrobial, and those sets of measurements could each be provided as input to a neural network such as illustrated in FIG. 24. Each of those neural networks would then provide a prediction of the most likely MIC, and those predictions could be provided as input to another function (e.g., a statistical function, such as a mode or median identification function) that would provide a prediction that would be treated as the true MIC for the sample.

E. coli bacteria = assay: Digital microscopy of E. coli bacteria exposed to antibiotic dilution (elongation); details: FIG. 17 versus unexposed FIG. 18
Text: Data extraction step 117 may be configured to derive information regarding the ratio between the total count of microbes and the total area occupied by all of the microbes in the image. This information may be useful in determining whether the microbes are undergoing elongation over time. Elongation is a precursor to death and indicates the concentration of the antimicrobic dilution is negatively affecting the microbes. More specifically, elongation may occur when microbes such as bacteria encounter an effective amount of antibiotic drugs. For example, FIGS. 17 and 18 depict microbes embodied by E. coli bacteria. FIG. 17 depicts the E. coli after being exposed to a dilution of the antibiotic ampicillin, while FIG. 18 depicts the E. coli free from any ampicillin exposure. […] This elongation is a precursor to the death of the bacteria and illustrates that the concentration of ampicillin is sufficient to neutralize the bacteria. FIG. 18 illustrates normal growth. It follows that the ratio between the total area occupied by all of the bacteria and the bacteria count will increase over time to represent each bacterium elongating. For example, if a particular image sample includes 100 bacteria and each bacterium measures approximately 4 pixels each, the area occupied by the 100 bacteria within the image is 400 pixels. In this image sample, the ratio of bacteria area to bacteria count is 4.0. […]

SMILES: CC(C)(O/N=C(\C(=O)N[C@@H]1C(=O)N2C(C(=O)[O-])=C(C[n+]3ccccc3)CS[C@H]12)c1csc(N)n1)C(=O)O [Caz, Ceftazidime]
- actual MIC (P. fluorescens [1]): example was 2. μg/ml
- final predicted MIC (P. fluorescens [2]; median of the predictions of the 11 drug concentration wells): which in this case is 2. μg/ml
- Predicted MIC (P. fluorescens [2]; prediction from test well with dilution 0.06 μg/ml): 2 µg/mL
- Predicted MIC (P. fluorescens [2]; prediction from test well with dilution 0.12 μg/ml): 2 µg/mL
- Predicted MIC (P. fluorescens [2]; prediction from test well with dilution 0.25 μg/ml): 2 µg/mL
- Predicted MIC (P. fluorescens [2]; prediction from test well with dilution 0.5 μg/ml): 2 µg/mL
- Predicted MIC (P. fluorescens [2]; prediction from test well with dilution 1 μg/ml): 2 µg/mL
- Predicted MIC (P. fluorescens [2]; prediction from test well with dilution 2 μg/ml): 2 µg/mL
- Predicted MIC (P. fluorescens [2]; prediction from test well with dilution 4 μg/ml): 32 µg/mL
- Predicted MIC (P. fluorescens [2]; prediction from test well with dilution 8 μg/ml): 2 µg/mL
- Predicted MIC (P. fluorescens [2]; prediction from test well with dilution 16 μg/ml): 2 µg/mL
- Predicted MIC (P. fluorescens [2]; prediction from test well with dilution 32 μg/ml): 2 µg/mL
- Predicted MIC (P. fluorescens [2]; prediction from test well with dilution 64 μg/ml): 2 µg/mL

SMILES: CC1(C)S[C@@H]2[C@H](NC(=O)[C@H](N)c3ccccc3)C(=O)N2[C@H]1C(=O)O [ampicillin]
- growth morphology after exposure to a dilution of the antibiotic (E. coli bacteria): abnormal growth in the form of elongation
